For data set [1] the following is noted: rcm bond, DCE.
For data set [2] the following is noted: rcm bond, Hoveyda-Grubbs II, DCE.
For data set [3], the system named is recombinant NL-Rluc virus. The data set is described as follows: Inhibition of HIV replication (NL-RLuc virus in MT-2 cells, luciferase readout). The conditions noted are these: 5 days of incubation, 10% FBS. In kind it is cell-based.
The mark [4] stands for this setting: Human immunodeficiency virus 1, MT2, 120 h.

20 compounds from patent US8906929B2, “Inhibitors of human immunodeficiency virus replication” (priority 2012, dated 2014) can be followed below.

pEC50: −log10 of the molar value. Like-named read-outs stand apart in the source and are kept apart here.

Regarding `COC(=O)[C@@H](OC(C)(C)C)c1c(C)nc2cc3nn2c1-c1cc(F)c2c(c1)N(CC=CCCc1ccccc1-c1cccc-3c1)CCO2`, the ring closure, isolated yield in data set [1] (from C=CCCc1ccccc1-c1cccc(-c2cc3nc(C)c([C@H](OC(C)(C)C)C(=O)OC)c(-c4cc(F)c5c(c4)N(CC=C)CCO5)n3n2)c1, 18-membered ring, Hoveyda-Grubbs II, 8.3 mM, 70.0 °C, 18.0 h) worked out at 54.5%.

On to `COC(=O)[C@@H](OC(C)(C)C)c1c(C)nc2cc3nn2c1-c1ccc2c(c1)C(CC=CCOc1ccccc1-c1cccc-3c1)CCO2` (stereo partly drawn), for which, in data set [1] (from C=CCOc1ccccc1-c1cccc(-c2cc3nc(C)c([C@H](OC(C)(C)C)C(=O)OC)c(-c4ccc5c(c4)C(CC=C)CCO5)n3n2)c1, 18-membered ring, Hoveyda-Grubbs II, 2.06 mM, 70.0 °C, 3.0 h), the ring closure, isolated yield is 84%.

Regarding `COC(=O)[C@@H](OC(C)(C)C)c1c(C)nc2cc3nn2c1-c1ccc2c(c1Cl)N(CC=CCCCOc1ccccc1-c1cccc-3c1)CCO2`, in data set [1] (from C=CCCCOc1ccccc1-c1cccc(-c2cc3nc(C)c([C@H](OC(C)(C)C)C(=O)OC)c(-c4ccc5c(c4Cl)N(CC=C)CCO5)n3n2)c1, 20-membered ring, Hoveyda-Grubbs II, 27.0 mM, 50.0 °C, 3.0 h), the ring closure, isolated yield came to 53.4%.

Consider `COC(=O)[C@@H](OC(C)(C)C)c1c(C)nc2cc3nn2c1-c1ccc2c(c1Cl)N(CC=CCCc1ccccc1-c1cccc-3c1)CCO2`, for which the ring closure, isolated yield in data set [1] (from C=CCCc1ccccc1-c1cccc(-c2cc3nc(C)c([C@H](OC(C)(C)C)C(=O)OC)c(-c4ccc5c(c4Cl)N(CC=C)CCO5)n3n2)c1, 18-membered ring, Hoveyda-Grubbs II, 70.0 °C, 4.0 h) is 73%. The compound also returned a ring closure, yield after HPLC in data set [2] (from C=CCCc1ccccc1-c1cccc(-c2cc3nc(C)c([C@H](OC(C)(C)C)C(=O)OC)c(-c4ccc5c(c4Cl)N(CC=C)CCO5)n3n2)c1, 18-membered ring, 28.0 mM, 50.0 °C, 1.0 h) of 26.5%.

On to `COC(=O)[C@@H](OC(C)(C)C)c1c(C)nc2cc3nn2c1-c1ccc2c(c1Cl)N(CC=CCOc1cccc(c1)-c1cccc-3c1)CCO2`, for which the ring closure, yield after HPLC in data set [2] (from C=CCOc1cccc(-c2cccc(-c3cc4nc(C)c([C@H](OC(C)(C)C)C(=O)OC)c(-c5ccc6c(c5Cl)N(CC=C)CCO6)n4n3)c2)c1, 19-membered ring, then NaOH, 29.0 mM, 50.0 °C, 5.0 h, 2 steps) was 26.6%.

As to `COC(=O)[C@@H](OC(C)(C)C)c1c(C)nc2cc3nn2c1N1CCC(C)(CC1)COCC=CCCc1ccccc1-c1cccc-3c1`, the ring closure, isolated yield in data set [1] (from C=CCCc1ccccc1-c1cccc(-c2cc3nc(C)c([C@H](OC(C)(C)C)C(=O)OC)c(N4CCC(C)(COCC=C)CC4)n3n2)c1, 20-membered ring, Hoveyda-Grubbs II (10 mol%), 1.23 mM, 70.0 °C, 3.0 h) is 98%.

In data set [2] (from C=CCOC1(C)CCN(c2c([C@H](OC(C)(C)C)C(=O)OC)c(C)nc3cc(-c4cccc(-c5ccccc5OC(C)C=C)c4)nn23)CC1, 19-membered ring, 1.28 mM, 2.0 h), `COC(=O)[C@@H](OC(C)(C)C)c1c(C)nc2cc3nn2c1N1CCC(C)(CC1)OCC=CC(C)Oc1ccccc1-c1cccc-3c1` (stereo partly drawn) came in with a ring closure, yield after HPLC of 98%.

`COC(=O)[C@@H](OC(C)(C)C)c1c(C)nc2cc3nn2c1N1CCC(C)(CC1)OCC=CC[C@@H](C)Oc1ccccc1-c1cccc-3c1` returned a ring closure, isolated yield in data set [1] (from C=CCOC1(C)CCN(c2c([C@H](OC(C)(C)C)C(=O)OC)c(C)nc3cc(-c4cccc(-c5ccccc5O[C@H](C)CC=C)c4)nn23)CC1, 20-membered ring, Hoveyda-Grubbs II, 1.43 mM, 2.0 h) of 100%.

Take `COC(=O)[C@@H](OC(C)(C)C)c1c(C)nc2cc3nn2c1N1CCC(C)(CC1)OCC=CC[C@H](C)Oc1ccc(F)cc1-c1cccc-3c1`: the ring closure, isolated yield in data set [1] (from C=CCOC1(C)CCN(c2c([C@H](OC(C)(C)C)C(=O)OC)c(C)nc3cc(-c4cccc(-c5cc(F)ccc5O[C@@H](C)CC=C)c4)nn23)CC1, 20-membered ring, Hoveyda-Grubbs II (20 mol%), then NaBH4/MeOH, 5.0 mM, 80.0 °C, 1.5 h, 2 steps) amounted to 38%.

In the case of `COC(=O)[C@@H](OC(C)(C)C)c1c(C)nc2cc3nn2c1N1CCC(C)(CC1)OCC=CC[C@H](C)Oc1ccccc1-c1cccc-3c1`, in data set [1] (from C=CCOC1(C)CCN(c2c([C@H](OC(C)(C)C)C(=O)OC)c(C)nc3cc(-c4cccc(-c5ccccc5O[C@@H](C)CC=C)c4)nn23)CC1, 20-membered ring, Hoveyda-Grubbs II, 1.5 mM, 2.0 h), the ring closure, isolated yield is 70%.

Take `Cc1cc2c(cc1Cl)-c1cccc(c1)-c1cc3nc(C)c([C@H](OC(C)(C)C)C(=O)O)c(n3n1)N1CCC(C)(CC1)OCCCC[C@@H](C)O2` [Example 90, (2S)-2-(tert-Butoxy)-2-[(22R)-17-chloro-4,18,22,28-tetramethyl-21,27-dioxa-1,5,7,8-tetraazahexacyclo[26.2.2.1^6,^9.1^10,^14.0^2,^7.0^15,^20]tetratriaconta-2,4, 6(34), 8, 10(33), 11, 13, 15 (20),16,18-decaen-3-yl]acetic acid]: the pEC50 in data set [3] (setting [4]) was 6.80.

With `Cc1cc2c(cc1F)-c1cccc(c1)-c1cc3nc(C)c([C@H](OC(C)(C)C)C(=O)O)c(n3n1)N1CCC(C)(CC1)OCCCC[C@H](C)O2` [Example 91, (2S)-2-(tert-Butoxy)-2-[(22S)-17-fluoro-4,18,22,28-tetramethyl-21,27-dioxa-1,5,7,8-tetraazahexacyclo[26.2.2.1^6,^9.1^10,^14.0^2,^7.0^15,^20]tetratriaconta-2,4,6(34),8,10(33), 11, 13, 15(20),16,18-decaen-3-yl]acetic acid], the pEC50 in data set [3] (setting [4]) is 7.33.

In the case of `CCC(C)(C)O[C@H](C(=O)O)c1c(C)nc2cc3nn2c1N1CCC(C)(CC1)OCCCC[C@H](C)Oc1ccc(C)cc1-c1cccc-3c1` [Example 96, (2S)-2-[(2-Methylbutan-2-yl)oxy]-2-[(22S)-4,17,22,28-tetramethyl-21,27-dioxa-1,5,7,8-tetraazahexacyclo[26.2.2.1^6,^9.1^10,^14.0^2,^7.0^15,^20]tetratriaconta-2,4,6(34),8,10(33), 11, 13, 15 (20),16,18-decaen-3-yl]acetic acid], the negative logarithm of the EC50 (pEC50) in data set [3] (setting [4]) is 7.44.

Regarding `Cc1ccc2c(c1)-c1cccc(c1)-c1cc3nc(C)c([C@H](OC4(C)CCC4)C(=O)O)c(n3n1)N1CCC(C)(CC1)OCCCC[C@H](C)O2` [Example 97, (2S)-2-(1-Methylcyclobutoxy)-2-[(22S)-4,17,22,28-tetramethyl-21,27-dioxa-1,5,7,8-tetraazahexacyclo[26.2.2.1^6,^9.1^10,^14.0^2,^7.0^15,^20]tetratriaconta-2,4, 6(34), 8, 10(33), 11, 13, 15 (20),16,18-decaen-3-yl]acetic acid], the pEC50 in data set [3] (setting [4]) was 7.39.

`Cc1nc2cc3nn2c(c1[C@H](OC(C)(C)C)C(=O)O)N1CCC(C)(CC1)OCCCC[C@H](C)Oc1cccc(F)c1-c1cc-3ccc1F` [Example 99]: the pEC50 in data set [3] (setting [4]) was 7.70.

On to `Cc1ccc2c(c1)O[C@@H](C)CC=CCOC1(C)CCN(CC1)c1c([C@H](OC(C)(C)C)C(=O)O)c(C)nc3cc(nn13)-c1cccc-2c1` [Example 105, (2S)-2-(tert-Butoxy)-2-[(22S)-4,18,22,28-tetramethyl-21,27-dioxa-1,5,7,8-tetraazahexacyclo[26.2.2.1^6,^9.1^10,^14.0^2,^7.0^15,^20]tetratriaconta-2,4,6(34),8,10(33), 11, 13, 15(20),16,18,24-undecaen-3-yl]acetic acid], for which, in data set [3] (setting [4]), the pEC50 is 7.55.

Turning to `Cc1nc2cc3nn2c(c1[C@H](OC(C)(C)C)C(=O)O)N1CCC(C)(CC1)COCCCCCc1ccccc1-c1cccc-3c1` [Example 106], the pEC50 in data set [3] (setting [4]) was 7.05.

On to “(2S)-2-(tert-Butoxy)-2-[(22S)-4,17,22,29-tetramethyl-21,28-dioxa-1,5,7,8-tetraazahexacyclo[27.2.2.1^6,^9.1^10,^14.0^2,^7.0^15,^20]pentatriaconta-2,4, 6(35), 8, 10(34), 11, 13, 15 (20),16,18-decaen-3-yl]acetic acid [Example 65]”, for which, in data set [3] (read-out: EC50), the pEC50 is 7.37.

The compound “Methyl (2S)-2-(tert-butoxy)-2-[(23E)-4,27-dimethyl-21,26-dioxa-1,5,7,8-tetraazahexacyclo[25.2.2.1^6,^9.1^10,^14.0^2,^7.0^15,^20]tritriaconta-2,4,6(33),8,10(32),11,13,15(20),16,18,23-undecaen-3-yl]acetate” gave a ring closure, isolated yield in data set [1] (19-membered ring, Hoveyda-Grubbs II, 1.3 mM) of 100%.

“Methyl (2S)-2-(tert-butoxy)-2-[(24E/Z)-4,17,23,28-tetramethyl-21,27-dioxa-1,5,7,8-tetraazahexacyclo[26.2.2.1^6,^9.1^10,^14.0^2,^7.0^15,^20]tetratriaconta-2,4,6(34),8,10(33), 11,13,15 (20),16,18,24-undecaen-3-yl]acetate” returned a ring closure, isolated yield in data set [1] (20-membered ring, Hoveyda-Grubbs II (7 mol%), 4.0 mM, 85.0 °C) of 70.6%.
